Laboratory results as given in the supplement of paper PMC10307832.

Columns and labels:
Test in all cases: relative viability (nuclei count vs DMSO), 5 days (fraction); higher = more cells survive
TPCA-1 + Decitabine = compound: C1=CC(=CC=C1C2=CC(=C(S2)NC(=O)N)C(=O)N)F [TPCA-1] + Nc1ncn([C@H]2C[C@H](O)[C@@H](CO)O2)c(=O)n1 [Decitabine] (partner 2 µM)
In short: (§1)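 A single step with final 0.05% Triton X-100, 1% formaldehyde and 1 ug/ml Hoechst fixed the cells and stained nuclei 5 days after treatment. Lung cancer cell lines in 1536-well plates had been treated by pin tool the day after seeding with one drug alone or a fixed anchor-drug dose plus five library-drug doses (not always all listed) in √10 steps, and nuclei were counted on 4× images. Relative viability is the ratio of nuclei in treated wells to nuclei in vehicle wells, taken as the median of duplicate plates.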

[1] = compound: C[C@]12O[C@H](C[C@]1(O)CO)n1c3ccccc3c3c4c(c5c6ccccc6n2c5c31)CNC4=O [Lestaurtinib] + O=C(CCCCCCC(=O)Nc1ccccc1)NO [Vorinostat] (partner 1 µM)
In short: as §1

[2] = compound: C[C@]12O[C@H](C[C@]1(O)CO)n1c3ccccc3c3c4c(c5c6ccccc6n2c5c31)CNC4=O [Lestaurtinib] + CC(=O)c1c(C)c2cnc(Nc3ccc(N4CCNCC4)cn3)nc2n(C2CCCC2)c1=O [Palbociclib] (partner 0.5 µM)
In short: as §1

TPCA-1 + Alpelisib = compound: C1=CC(=CC=C1C2=CC(=C(S2)NC(=O)N)C(=O)N)F [TPCA-1] + Cc1nc(NC(=O)N2CCC[C@H]2C(N)=O)sc1-c1ccnc(C(C)(C)C(F)(F)F)c1 [Alpelisib] (partner 2 µM)
In short: as §1

| Cell Line | relative viability (TPCA-1 + Decitabine; first compound 0.04 µM) | relative viability (TPCA-1 + Decitabine; first compound 0.1265 µM) | relative viability (TPCA-1 + Decitabine; first compound 0.4 µM) | relative viability (TPCA-1 + Decitabine; first compound 1.265 µM) | relative viability (TPCA-1 + Decitabine; first compound 4 µM) | relative viability ([1]; first compound 0.005 µM) | relative viability ([1]; first compound 0.01581 µM) | relative viability ([1]; first compound 0.05 µM) | relative viability ([1]; first compound 0.1581 µM) | relative viability ([1]; first compound 0.5 µM) | relative viability ([2]; first compound 0.005 µM) | relative viability ([2]; first compound 0.01581 µM) | relative viability ([2]; first compound 0.05 µM) | relative viability ([2]; first compound 0.1581 µM) | relative viability ([2]; first compound 0.5 µM) | relative viability (TPCA-1 + Alpelisib; first compound 0.04 µM) | relative viability (TPCA-1 + Alpelisib; first compound 0.1265 µM) | relative viability (TPCA-1 + Alpelisib; first compound 0.4 µM) | relative viability (TPCA-1 + Alpelisib; first compound 1.265 µM) | relative viability (TPCA-1 + Alpelisib; first compound 4 µM) |
| --- | --- | --- | --- | --- | --- | --- | --- | --- | --- | --- | --- | --- | --- | --- | --- | --- | --- | --- | --- | --- |
| NCI-H2087 | 0.255 | 0.222 | 0.311 | 0.335 | 0.152 | 0.815 | 0.652 | 0.667 | 0.474 | 0.373 | 0.167 | 0.252 | 0.167 | 0.17 | 0.207 | 1.06 | 0.871 | 0.916 | 1.06 | 0.418 |
| LC-2-ad | 0.773 | 0.678 | 0.741 | 0.854 | 0.776 | 0.713 | 0.768 | 0.41 | 0.296 | 0.203 | 0.59 | 0.527 | 0.418 | 0.429 | 0.293 | 0.937 | 0.775 | 0.99 | 0.82 | 0.326 |
| PC-3 [JPC-3] | 0.862 | 0.916 | 0.838 | 0.813 | 0.818 | 0.644 | 1.15 | 0.866 | 0.816 | 0.469 | 0.531 | 0.611 | 0.557 | 0.575 | 0.544 | 1.01 | 1.02 | 1.04 | 0.957 | 0.958 |
| EBC-1 |  |  |  |  |  |  |  |  |  |  |  |  |  |  |  | 0.843 | 0.77 | 0.892 | 0.933 | 0.626 |
